A word on the IC50: it is the midpoint of a concentration-inhibition curve. By MIC is commonly meant the smallest concentration in the dilution series that meets the test's criterion for growth inhibition.

SMILES strings stand for the structures. Converted amounts (≈) assume the structure as drawn. Read-outs that look alike come from different tables or passages of the source.

The target of one experiment is human (hACC2) ACC2 (Homo sapiens, UniProt O00763). The experiment in a line: In vitro Acetyl-CoA Carboxylase (ACC) inhibition assay (ADP-Glo), hACC2. It is filed as biochemical. How it is done:
The detailed procedure is as follows. […] 10 μL ADP glo reagent was added. […] 20 μL kinase detection reagent was added.
“NA” stands for “not assayed.”

A further experiment deals with C. albicans ATCC 90028. The experiment in a line: Anti-Fungal (Candida) Activity Assay, broth microtiter MIC. In kind it is cell-based. Conditions: ATCC90028, 3 replicates, MIC recorded at 48 h, read-out: MIC C. albicans ATCC 90028. As to the method:
(§1) Compounds of the present invention were evaluated in an Anti-Fungal Activity Assay. An exemplary procedure for the assay, which measures the susceptibility of various Candida species to anti-fungal compounds, follows. Compounds to be tested (including fluconazole and amphotericin B) were dissolved in DMSO to obtain a solution having a concentration of 1 mg/mL. […] All species were grown from frozen stock by directly plating on to freshly prepared Sabouraud Dextrose agar (BD, Difco) and incubated overnight in ambient air at 35° C. for 24 h. A direct suspension was prepared in RPMI 1640+MOPS (Lonza, Biowhittaker) by taking individual colonies from the overnight cultures using sterile swabs soaked in sterile saline. The concentration of the suspension was determined using pre-determined standard curves. […] Broth microtiter MIC challenge plates were prepared following CLSI guidelines (M27-A3, Vol. 28 No. 14). The original CLSI guidelines focused on reading Candida MICs after 48 h of incubation. As reading after only 24 h offers a clear advantage of patient care, QC limits are being established for all drugs at 24 h. That being said there are no known interpretive breakpoints for amphotericin B at 24 h and the current fluconazole interpretive breakpoints are based on a 48 h reading. The MIC for the test compounds were recorded at 48 h. All MIC determinations were achieved by visually comparing the growth found in the antibiotic challenged wells to that of the growth control.

A further experiment concerns C. krusei ATCC 6258. The description is as above. It is filed as cell-based. Conditions: Pichia kudriavzevii, ATCC6258; 3 replicates, MIC recorded at 48 h; read-out: MIC C. krusei ATCC 6258. As to the method: as §1
Experiment [1] relates to C. parapsilosis ATCC 22019. Described as above. It is filed as cell-based. Conditions: Lodderomyces parapsilosis, ATCC22019; 3 replicates, MIC recorded at 48 h; read-out: MIC C. parapsilosis ATCC 22019. How it is done: as §1
Another experiment has as its system Botrtyis cinerea (Bc). The experiment in a line: Growth inhibition assay of fungal pathogens. In kind it is cell-based. Conditions: 48 h, read-out: Concentration at 90% Inhibition Bc. As to the method: (§2) Compounds of the present invention were evaluated in a growth inhibition assay to determine the ability to control the growth of fungal pathogens, such as Botrtyis cinerea (Bc), Collectotrichum graminicola (Cg). Diplodia maydis (Dm), Fusarium moniliforme (Fm), Fusarium virguliforme (Fv), Phytophthora capsici (Pc), Rhizoctonia solani (Rs), and Septoria tritici (St). Compounds to be tested were dissolved in DMSO at 2.5 mg/ml to produce compound stock solutions (“stocks”). Stocks were diluted with DMSO by a five-fold dilution in a 96-well stock plate, and two sets of final concentrations of 50, 10, and 2 ppm or 2, 0.4, and 0.08 ppm were obtained in vitro. A set of positive controls was also prepared, with various concentrations of Soraphen (2, 0.4, and 0.08 ppm), Metalaxyl (1.1, 0.22, and 0.04 ppm), and Metconazole (2, 0.4, and 0.08 ppm or 0.2, 0.04, and 0.008 ppm) after the five-fold dilutions. Negative controls on each plate included 2% DMSO, water, and a blank (media+2% DMSO). Fungal spores were isolated from previously sub-cultured plates of Botrtyis cinerea (Bc). Collectotrichum graminicola (Cg). Diplodia maydis (Dm), Fusarium moniliforme (Fm), Fusarium virguliforme (Fv), Phytophthora capsici (Pc), and Septoria tritici (St). The isolated spores were diluted to individual concentrations with a 17% V8 liquid media. For Rhizoctonia solani (Rs) and Pythium irregulare, 1.5 mm mycelial plugs were used in place of spores and ¼ Potato Dextrose Broth (PDB) was used for dilution. The spore concentrations and plug sizes were based on growth curves generated at 48 hours for each pathogen. In a second 96-well plate, the spores or mycelial plugs, media, diluted compound solutions, and controls were combined. Once the compound was added, a true final concentration of compound in each well was measured by an OD600 reading, which adjusted for any compound precipitation that might have occurred in the well. Plate readings were repeated at both 24 and 48 hours. The blank negative control was used as a background subtraction. Additional visual ratings were performed at both 24 and 48 hours for checking on precipitation and confirming efficacy. Visual and OD600 ratings of the compounds at 48 hours were compared to the 2% DMSO negative control, and the percent of pathogen growth inhibition was determined based on those values.

The test system of experiment [2] is Collectotrichum graminicola (Cg). The experiment in a line: Growth inhibition assay of fungal pathogens. In kind it is cell-based. Conditions: 48 h, read-out: Concentration at 90% Inhibition Cg. As to the method: as §2
A further experiment deals with Diplodia maydis (Dm). The experiment in a line: Growth inhibition assay of fungal pathogens. In kind it is cell-based. Conditions: Stenocarpella maydis, 48 h, read-out: Concentration at 90% Inhibition Dm. How it is done: as §2
The test system of experiment [3] is Fusarium moniliforme (Fm). The experiment in a line: Growth inhibition assay of fungal pathogens. In kind it is cell-based. Conditions: Fusarium verticillioides, 48 h, 48 hours, read-out: Concentration at 90% Inhibition Fm. As to the method: as §2
In experiment [4] the test system is Fusarium virguliforme (Fv). The experiment in a line: Growth inhibition assay of fungal pathogens. Conditions: 48 h, 48 hours, read-out: Concentration at 90% Inhibition Fv. It is filed as cell-based. As to the method:
as §2

Experiment [5] deals with Phytophthora capsici (Pc). The experiment in a line: Growth inhibition assay of fungal pathogens. It is filed as cell-based. Conditions: 48 hours; for IC90: Phytophthora capsici, read-out: Concentration at 90% Inhibition Pc. How it is done:
as §2

Another experiment concerns Rhizoctonia solani (Rs). The experiment in a line: Growth inhibition assay of fungal pathogens. It is filed as cell-based. Conditions: 48 h, read-out: Concentration at 90% Inhibition Rs. As to the method: as §2
For another experiment, the system named is Septoria tritici (St). The experiment in a line: Growth inhibition assay of fungal pathogens. Conditions: 48 hours; for IC90: Zymoseptoria tritici, read-out: Concentration at 90% Inhibition St. In kind it is cell-based. As to the method: as §2

human (hACC2) ACC2, sequence (O00763 whole entry): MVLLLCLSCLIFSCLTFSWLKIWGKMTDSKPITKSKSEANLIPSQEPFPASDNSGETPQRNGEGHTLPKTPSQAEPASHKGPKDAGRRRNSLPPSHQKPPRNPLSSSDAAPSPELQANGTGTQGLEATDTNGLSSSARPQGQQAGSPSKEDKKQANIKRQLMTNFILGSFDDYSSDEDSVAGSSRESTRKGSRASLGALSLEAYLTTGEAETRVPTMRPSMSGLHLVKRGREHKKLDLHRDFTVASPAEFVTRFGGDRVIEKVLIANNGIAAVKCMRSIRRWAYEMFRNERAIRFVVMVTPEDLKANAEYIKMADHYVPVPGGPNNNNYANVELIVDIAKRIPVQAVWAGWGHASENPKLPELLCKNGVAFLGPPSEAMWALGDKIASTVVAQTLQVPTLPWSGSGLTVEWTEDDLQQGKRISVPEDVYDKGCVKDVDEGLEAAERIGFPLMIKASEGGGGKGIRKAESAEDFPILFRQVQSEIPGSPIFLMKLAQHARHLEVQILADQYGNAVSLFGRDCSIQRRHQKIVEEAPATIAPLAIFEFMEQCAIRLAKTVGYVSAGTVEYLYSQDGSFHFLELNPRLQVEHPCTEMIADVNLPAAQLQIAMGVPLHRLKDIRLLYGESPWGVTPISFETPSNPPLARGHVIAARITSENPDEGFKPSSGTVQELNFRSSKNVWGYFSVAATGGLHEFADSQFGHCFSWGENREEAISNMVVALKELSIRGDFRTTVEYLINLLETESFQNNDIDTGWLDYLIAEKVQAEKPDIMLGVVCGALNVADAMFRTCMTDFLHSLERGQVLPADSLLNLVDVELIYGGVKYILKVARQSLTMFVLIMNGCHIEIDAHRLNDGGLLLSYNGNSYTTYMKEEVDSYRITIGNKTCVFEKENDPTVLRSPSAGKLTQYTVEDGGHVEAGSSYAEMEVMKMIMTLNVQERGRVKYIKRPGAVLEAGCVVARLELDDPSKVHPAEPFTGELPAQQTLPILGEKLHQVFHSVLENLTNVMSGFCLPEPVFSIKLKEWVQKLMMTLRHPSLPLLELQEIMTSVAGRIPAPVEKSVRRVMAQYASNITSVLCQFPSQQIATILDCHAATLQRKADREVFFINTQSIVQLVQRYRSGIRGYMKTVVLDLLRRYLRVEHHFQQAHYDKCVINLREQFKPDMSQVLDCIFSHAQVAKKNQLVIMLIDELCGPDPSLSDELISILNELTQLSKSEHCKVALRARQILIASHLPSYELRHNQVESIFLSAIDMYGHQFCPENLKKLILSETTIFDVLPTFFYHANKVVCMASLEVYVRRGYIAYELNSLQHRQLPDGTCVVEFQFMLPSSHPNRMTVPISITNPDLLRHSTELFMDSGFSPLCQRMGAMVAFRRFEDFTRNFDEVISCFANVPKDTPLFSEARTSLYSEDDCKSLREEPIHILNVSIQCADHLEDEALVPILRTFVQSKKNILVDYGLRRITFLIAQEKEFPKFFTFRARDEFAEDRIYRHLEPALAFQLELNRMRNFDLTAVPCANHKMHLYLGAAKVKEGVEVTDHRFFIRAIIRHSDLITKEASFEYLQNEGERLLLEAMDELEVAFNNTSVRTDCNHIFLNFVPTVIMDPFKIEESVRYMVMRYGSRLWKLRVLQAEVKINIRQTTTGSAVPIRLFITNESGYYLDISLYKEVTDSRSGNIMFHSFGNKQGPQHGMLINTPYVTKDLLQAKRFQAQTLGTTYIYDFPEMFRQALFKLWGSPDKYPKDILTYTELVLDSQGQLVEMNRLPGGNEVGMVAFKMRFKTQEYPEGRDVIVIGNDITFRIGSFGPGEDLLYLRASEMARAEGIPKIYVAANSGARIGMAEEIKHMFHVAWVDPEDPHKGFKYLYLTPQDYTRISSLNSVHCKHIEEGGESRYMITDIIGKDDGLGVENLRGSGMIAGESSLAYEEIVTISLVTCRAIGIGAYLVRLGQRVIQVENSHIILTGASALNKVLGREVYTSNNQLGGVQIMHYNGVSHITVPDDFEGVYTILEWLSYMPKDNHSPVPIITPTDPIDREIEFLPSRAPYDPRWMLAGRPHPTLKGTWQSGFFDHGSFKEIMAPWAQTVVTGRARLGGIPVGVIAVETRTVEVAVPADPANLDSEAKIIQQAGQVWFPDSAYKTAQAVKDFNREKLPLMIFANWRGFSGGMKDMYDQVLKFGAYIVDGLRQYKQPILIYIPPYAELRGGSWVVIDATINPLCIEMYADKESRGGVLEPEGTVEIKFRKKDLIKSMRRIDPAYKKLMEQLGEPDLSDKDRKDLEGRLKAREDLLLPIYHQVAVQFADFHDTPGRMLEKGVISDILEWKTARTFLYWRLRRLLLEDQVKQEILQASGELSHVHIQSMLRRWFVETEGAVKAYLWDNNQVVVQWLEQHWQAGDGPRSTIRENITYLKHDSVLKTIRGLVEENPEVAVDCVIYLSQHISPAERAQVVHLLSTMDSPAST

Molecule `COc1ccc(F)cc1[C@H](Cn1c(=O)n(C(C)(C)C(=O)N2CCCC2)c(=O)c2c(C)c(-n3cccn3)sc21)O[C@H]1CC[C@@H](O)CC1` [Compound I-15, 1-((R)-2-(5-fluoro-2-methoxyphenyl)-2-(((1s,4S)-4-hydroxycyclohexyl)oxy)ethyl)-5-methyl-3-(2-methyl-1-oxo-1-(pyrrolidin-1-yl)pro-pan-2-yl)-6-(1H-pyrazol-1-yl)thieno[2,3-d]pyrimidine-2,4(1H,3H)-dione] yielded a concentration for half-maximal inhibition (IC50) against human (hACC2) ACC2 of 3 to 10 nM. The results for the MIC (with C. albicans ATCC 90028; in the experiment with C. krusei ATCC 6258; in [1]) were 0.25 to 1 µg/mL (≈ 0.382 to 1.53 µM), 1.1 to 2 µg/mL (≈ 1.68 to 3.06 µM) and 0.25 to 1 µg/mL (≈ 0.382 to 1.53 µM), respectively. For the same molecule, the IC90 with Botrtyis cinerea (Bc) (Table 4a) was 2 µg/mL (≈ 3.06 µM); in the experiment with Botrtyis cinerea (Bc) (Table 4b) it was 2 µg/mL (≈ 3.06 µM); in experiment [2] (Table 4a), greater than 50 µg/mL; in experiment [2] (Table 4b), 10 µg/mL (≈ 15.3 µM); with Diplodia maydis (Dm) (Table 4a), greater than 50 µg/mL; in the experiment with Diplodia maydis (Dm) (Table 4b), 10 µg/mL (≈ 15.3 µM). Also, the IC90 in experiment [3] (Table 4a) is 0.4 µg/mL (≈ 0.612 µM); in experiment [3] (Table 4b), 0.4 µg/mL (≈ 0.612 µM); in [4] (Table 4a), 2 µg/mL (≈ 3.06 µM); in experiment [4] (Table 4b), 2 µg/mL (≈ 3.06 µM); in experiment [5] (Table 4a) it was greater than 50 µg/mL; in the experiment with Rhizoctonia solani (Rs) (Table 4a), greater than 50 µg/mL. For the same molecule, the figures for the IC90 with Rhizoctonia solani (Rs) (Table 4b) and with Septoria tritici (St) (Table 4a) were 10 µg/mL (≈ 15.3 µM) and greater than 50 µg/mL, respectively. In addition, the “Concentration at 90% Inhibition Pc” value in experiment [5] (Table 4b) was “D (“D” provided a compound concentration of >50 ppm at 90% inhibition of fungal pathogens)”. Moreover, the “Concentration at 90% Inhibition St” value in the experiment with Septoria tritici (St) (Table 4b) is on record as “D (“D” provided a compound concentration of >50 ppm at 90% inhibition of fungal pathogens)”.
In the case of `COc1ccc(F)cc1[C@H](Cn1c(=O)n(C(C)(C)C(=O)N2CC(O)C2)c(=O)c2c(C)c(-n3cccn3)sc21)OC1CCOCC1` [Compound I-9, (R)-1-(2-(5-fluoro-2-methoxyphenyl)-2-((tetrahydro-2H-pyran-4-yl)oxy)ethyl)-3-(1-(3-hydroxyazetidin-1-yl)-2-methyl-1-oxopropan-2-yl)-5-methyl-6-(1H-pyrazol-1-yl)thieno[2,3-d]pyrimidine-2,4(1H,3H)-dione], on human (hACC2) ACC2, the 50% inhibitory concentration (IC50) is 10 to 40 nM. Besides, the IC90 (in the experiment with Botrtyis cinerea (Bc) (Table 4b); in experiment [2] (Table 4b); with Diplodia maydis (Dm) (Table 4b); in experiment [3] (Table 4b); in experiment [4] (Table 4b); in experiment [5] (Table 4b)) was greater than 50 µg/mL throughout. The IC90 with Rhizoctonia solani (Rs) (Table 4b) and in the experiment on Septoria tritici (St) (Table 4b) was greater than 50 µg/mL throughout.
As for `COc1ccccc1[C@H](Cn1c(=O)n(C(C)(C)C(N)=O)c(=O)c2c(C)c(-n3cccn3)sc21)OC1CCOCC1` [Compound I-10, (R)-2-(1-(2-(2-methoxyphenyl)-2-((tetrahydro-2H-pyran-4-yl)oxy)ethyl)-5-methyl-2,4-dioxo-6-(1H-pyrazol-1-yl)-1,4-dihydrothieno[2,3-d]pyrimidin-3(2H)-yl)-2-methylpropanamide], on human (hACC2) ACC2, the IC50 lay in the range of 3 to 10 nM. Further, the IC90 was greater than 50 µg/mL with Botrtyis cinerea (Bc) (Table 4b); greater than 50 µg/mL in experiment [2] (Table 4b); greater than 50 µg/mL with Diplodia maydis (Dm) (Table 4b); 10 µg/mL (≈ 17.6 µM) in experiment [3] (Table 4b); greater than 50 µg/mL in experiment [4] (Table 4b); greater than 50 µg/mL in experiment [5] (Table 4b). Moreover, the IC90 in the experiment on Rhizoctonia solani (Rs) (Table 4b) and with Septoria tritici (St) (Table 4b) was greater than 50 µg/mL in each case.
In the case of `COc1ccccc1[C@H](Cn1c(=O)n(C(C)(C)C(N)=O)c(=O)c2c(C)c(-n3cccn3)sc21)OCC(C)C` [Compound I-20, (R)-2-(1-(2-isobutoxy-2-(2-methoxyphenyl)ethyl)-5-methyl-2,4-dioxo-6-(1H-pyrazol-1-yl)-1,4-dihydrothieno[2,3-d]pyrimidin-3(2H)-yl)-2-methylpropanamide], the IC50 at human (hACC2) ACC2 was in the range of 3 to 10 nM. Moreover, the IC90 in the experiment on Botrtyis cinerea (Bc) (Table 4b) was 10 µg/mL (≈ 18.5 µM); in experiment [2] (Table 4b), greater than 50 µg/mL; in the experiment on Diplodia maydis (Dm) (Table 4b), 10 µg/mL (≈ 18.5 µM); in [3] (Table 4b) it was 10 µg/mL (≈ 18.5 µM); in experiment [4] (Table 4b), greater than 50 µg/mL; in [5] (Table 4b), greater than 50 µg/mL. Further, the IC90 with Rhizoctonia solani (Rs) (Table 4b) and with Septoria tritici (St) (Table 4b) was greater than 50 µg/mL throughout.
For the molecule `COc1ccccc1[C@H](Cn1c(=O)n(C(C)(C)C(N)=O)c(=O)c2c(C)c(-n3cccn3)sc21)OC(C)C` [Compound I-16, (R)-2-(1-(2-isopropoxy-2-(2-methoxyphenyl)ethyl)-5-methyl-2,4-dioxo-6-(1H-pyrazol-1-yl)-1,4-dihydrothieno[2,3-d]pyrimidin-3(2H)-yl)-2-methylpropanamide], the IC50 on human (hACC2) ACC2 was 10 to 40 nM. The IC90 (with Botrtyis cinerea (Bc) (Table 4b); in experiment [2] (Table 4b); with Diplodia maydis (Dm) (Table 4b); in experiment [3] (Table 4b); in experiment [4] (Table 4b); in experiment [5] (Table 4b)) was greater than 50 µg/mL throughout. The figures for the IC90 with Rhizoctonia solani (Rs) (Table 4b) and in the experiment with Septoria tritici (St) (Table 4b) were 10 µg/mL (≈ 19 µM) and greater than 50 µg/mL, respectively.

The values are drawn from patent US10941158B2, “Pyrazole ACC inhibitors and uses thereof” (Gilead Apollo, LLC, priority 2015, dated 2021).
